Test results taken from US8906904B2, “Alkoxy pyrazoles as soluble guanylate cyclase activators” (Boehringer Ingelheim International GmbH, priority 2012, dated 2014).
Converted amounts (≈) assume the structure as drawn.

Tests used:
[1] = target: T1, human soluble guanylate cyclase alpha 1 and beta 1 subunits (sGC) (Homo sapiens, UniProt Q02108+Q02153); experiment: sGC cellular activator assay (cGMP, HTRF); assay type: cell-based; conditions: CHO cells stably expressing human sGC alpha 1/beta 1, preincubated with 40 microM ODQ; cGMP readout; assay run with and without 50% human serum, Table 2 does not say which
T1 construct: expressed in transfected cells; host or cells: Chinese hamster ovary (CHO) cells, stably transfected
T1 sequence (Q02108 1-690): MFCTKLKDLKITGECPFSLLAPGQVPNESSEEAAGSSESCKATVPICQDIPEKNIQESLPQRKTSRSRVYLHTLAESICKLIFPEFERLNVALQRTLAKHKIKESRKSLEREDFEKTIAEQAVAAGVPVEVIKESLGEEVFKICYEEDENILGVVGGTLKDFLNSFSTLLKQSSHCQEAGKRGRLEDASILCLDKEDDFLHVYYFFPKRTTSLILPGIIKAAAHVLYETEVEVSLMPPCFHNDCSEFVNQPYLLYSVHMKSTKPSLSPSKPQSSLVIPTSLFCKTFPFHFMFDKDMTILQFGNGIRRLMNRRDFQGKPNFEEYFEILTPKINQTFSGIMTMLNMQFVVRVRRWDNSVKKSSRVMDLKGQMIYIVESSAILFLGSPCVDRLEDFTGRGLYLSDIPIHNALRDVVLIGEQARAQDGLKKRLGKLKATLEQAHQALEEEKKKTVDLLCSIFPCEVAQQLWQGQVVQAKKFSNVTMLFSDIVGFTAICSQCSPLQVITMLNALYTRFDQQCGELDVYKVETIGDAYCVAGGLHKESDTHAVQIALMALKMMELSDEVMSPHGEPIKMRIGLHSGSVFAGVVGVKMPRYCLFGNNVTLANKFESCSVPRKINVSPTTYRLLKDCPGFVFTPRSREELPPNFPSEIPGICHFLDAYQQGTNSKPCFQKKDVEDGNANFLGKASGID
T1 sequence (Q02153 1-619): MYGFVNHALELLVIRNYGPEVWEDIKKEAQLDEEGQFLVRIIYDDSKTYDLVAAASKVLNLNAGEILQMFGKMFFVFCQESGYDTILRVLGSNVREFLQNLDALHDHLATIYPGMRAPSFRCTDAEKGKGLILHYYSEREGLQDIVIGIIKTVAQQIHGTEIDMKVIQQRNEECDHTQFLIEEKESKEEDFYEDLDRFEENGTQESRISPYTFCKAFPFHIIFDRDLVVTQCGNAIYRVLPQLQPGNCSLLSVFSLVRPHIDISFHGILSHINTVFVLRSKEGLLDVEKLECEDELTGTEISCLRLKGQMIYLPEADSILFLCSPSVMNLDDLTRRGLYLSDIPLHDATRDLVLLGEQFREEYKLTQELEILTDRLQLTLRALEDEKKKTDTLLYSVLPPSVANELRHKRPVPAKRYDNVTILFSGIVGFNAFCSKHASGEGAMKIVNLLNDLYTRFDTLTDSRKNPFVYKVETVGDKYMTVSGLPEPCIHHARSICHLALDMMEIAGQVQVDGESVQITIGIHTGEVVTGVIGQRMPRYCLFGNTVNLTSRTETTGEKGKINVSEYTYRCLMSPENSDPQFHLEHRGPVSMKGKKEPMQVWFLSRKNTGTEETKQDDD
Outline: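 First, CHO-sGC (human α1β1) cells get 1 h ODQ at 40 microM with IBMX and 0.1% BSA. Finally, cGMP is quantified by HTRF and EC50 computed.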

[2] = Assessment of solubility (McIlvaine buffers, 24 h shake, UPLC-UV); assay type: physicochemical; conditions: kinetic from dmso stock
Outline: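 Compounds from 10 mM DMSO stocks were shaken for 24 h at room temperature in McIlvaine buffers at pH 2.2, 4.5 and 6.8 (2.5% v/v DMSO final), then filtered. Filtrates were quantified by UPLC-UV at 254 nm against a 50:50 acetonitrile/water reference assumed fully dissolved, as a single determination.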

Row | Compound | EC50 [1] [nM] | solubility at 24 h ([2]; pH 2.2, aqueous buffer) [µg/mL] | solubility at 24 h ([2]; pH 4.5, aqueous buffer) [µg/mL] | solubility at 24 h ([2]; pH 6.8, aqueous buffer) [µg/mL]
1 | Cc1cccc(-c2cccc(-n3ncc(C(=O)O)c3OC(C)C)n2)c1OCc1ccc2c(c1)CCN(C1CCOCC1)C2 [Compound 1, 5-isopropoxy-1-(6-{3-methyl-2-[2-(tetrahydro-pyran-4-yl)-1,2,3,4-tetrahydro-isoquinolin-6-ylmethoxy]-phenyl}-pyridin-2-yl)-1H-pyrazole-4-carboxylic acid] | 39 | 95 (≈ 163 µM) | 80 (≈ 137 µM) | 87 (≈ 149 µM)
2 | Cc1cccc(-c2cccc(-n3ncc(C(=O)O)c3OC(C)C)n2)c1OCc1ccc2c(c1)CCN(C1CCC(F)(F)CC1)C2 [Compound 2] | 11 | 110 (≈ 178 µM) | 83 (≈ 135 µM) | 88 (≈ 143 µM)
3 | COc1c(C(=O)O)cnn1-c1cccc(-c2cccc(C)c2OCc2ccc3c(c2)CCN(C2CCOCC2)C3)n1 [Compound 3] | 29 | 96 (≈ 173 µM) | 79 (≈ 142 µM) | 81 (≈ 146 µM)
4 | Cc1cccc(-c2cccc(-n3ncc(C(=O)O)c3OC(C)C)n2)c1OCc1ccc2c(c1)CCN(CC1CC(F)(F)C1)C2 [Compound 4, 1-(6-{2-[2-(3,3-difluoro-cyclobutylmethyl)-1,2,3,4-tetrahydro-isoquinolin-6-ylmethoxy]-3-methyl-phenyl}-pyridin-2-yl)-5-isopropoxy-1H-pyrazole-4-carboxylic acid] | 11 | 100 (≈ 166 µM) | 81 (≈ 134 µM) | 83 (≈ 138 µM)
5 | COc1c(C(=O)O)cnn1-c1cccc(-c2cccc(C)c2OCc2ccc3c(c2)CCN(C2CCC(F)(F)CC2)C3)n1 [Compound 5] | 9 | 98 (≈ 166 µM) | 76 (≈ 129 µM) | 72 (≈ 122 µM)
6 | CCOc1c(C(=O)O)cnn1-c1cccc(-c2cccc(C)c2OCc2ccc3c(c2)CCN(C2COC2)C3)n1 [Compound 6] | 87 | 90 (≈ 166 µM) | 64 (≈ 118 µM) | 81 (≈ 150 µM)
7 | COc1c(C(=O)O)cnn1-c1cccc(-c2cccc(C)c2OCc2ccc3c(c2C)CCN(CC(C)(C)C)C3)n1 [Compound 30] | 10 | 100 (≈ 180 µM) | 81 (≈ 146 µM) | 75 (≈ 135 µM)
8 | COc1c(C(=O)O)cnn1-c1cccc(-c2cccc(C)c2OCc2ccc3c(c2C)CCN(C2CCOC2)C3)n1 (stereo not drawn) [Compound 31] | 19 | 110 (≈ 198 µM) | 89 (≈ 160 µM) | 94 (≈ 169 µM)
9 | CCOc1c(C(=O)O)cnn1-c1cccc(-c2cccc(C)c2OCc2ccc3c(c2)CCN(C(C)C)C3)n1 [Compound 32] | 170 | 91 (≈ 173 µM) | 73 (≈ 139 µM) | 78 (≈ 148 µM)
10 | COc1c(C(=O)O)cnn1-c1cccc(-c2cccc(C)c2OCc2ccc3c(c2)CCN(CC(C)(C)O)C3)n1 [Compound 33, 1-(6-{2-[2-(2-hydroxy-2-methyl-propyl)-1,2,3,4-tetrahydro-isoquinolin-6-ylmethoxy]-3-methyl-phenyl}-pyridin-2-yl)-5-methoxy-1H-pyrazole-4-carboxylic acid] | 97 | 93 (≈ 171 µM) | 73 (≈ 135 µM) | 75 (≈ 138 µM)
11 | CCOc1c(C(=O)O)cnn1-c1cccc(-c2cccc(C)c2OCc2ccc3c(c2)CCN(CC2(C)COC2)C3)n1 [Compound 34] | 65 | 82 (≈ 144 µM) | 65 (≈ 114 µM) | 68 (≈ 120 µM)
12 | CCOc1c(C(=O)O)cnn1-c1cccc(-c2cccc(C)c2OCc2ccc3c(c2)CCN(C2CCOC2)C3)n1 (stereo not drawn) [Compound 35] | 29 | 93 (≈ 168 µM) | 73 (≈ 132 µM) | 78 (≈ 141 µM)
13 | CCOc1c(C(=O)O)cnn1-c1cccc(-c2cccc(C)c2OCc2ccc3c(c2)CCN(C2CCCOC2)C3)n1 (stereo not drawn) [Compound 36] | 27 | 91 (≈ 160 µM) | 72 (≈ 127 µM) | 74 (≈ 130 µM)
14 | Cc1cccc(-c2cccc(-n3ncc(C(=O)O)c3OC(C)C)n2)c1OCc1ccc2c(c1)CCN(C(C)C)C2 [Compound 37] | 120 | 92 (≈ 170 µM) | 74 (≈ 137 µM) | 78 (≈ 144 µM)
15 | COCC(C)N1CCc2cc(COc3c(C)cccc3-c3cccc(-n4ncc(C(=O)O)c4OC(C)C)n3)ccc2C1 (stereo not drawn) [Compound 38] | 66 | 110 (≈ 193 µM) | 94 (≈ 165 µM) | 88 (≈ 154 µM)
16 | Cc1cccc(-c2cccc(-n3ncc(C(=O)O)c3OC(C)C)n2)c1OCc1ccc2c(c1)CCN(C1COC1)C2 [Compound 39] | 17 | 93 (≈ 168 µM) | 44 (≈ 79.3 µM) | 81 (≈ 146 µM)
17 | Cc1cccc(-c2cccc(-n3ncc(C(=O)O)c3OC(C)C)n2)c1OCc1ccc2c(c1)CCN(CC1(C)COC1)C2 [Compound 40] | 62 | 99 (≈ 170 µM) | 81 (≈ 139 µM) | 85 (≈ 146 µM)
18 | Cc1cccc(-c2cccc(-n3ncc(C(=O)O)c3OC(C)C)n2)c1OCc1ccc2c(c1)CCN(C1CCOC1)C2 (stereo not drawn) [Compound 41] | 27 | 96 (≈ 169 µM) | 75 (≈ 132 µM) | 80 (≈ 141 µM)
19 | Cc1cccc(-c2cccc(-n3ncc(C(=O)O)c3OC(C)C)n2)c1OCc1ccc2c(c1)CCN(C1CCCOC1)C2 (stereo not drawn) [Compound 42] | 24 | 93 (≈ 160 µM) | 75 (≈ 129 µM) | 78 (≈ 134 µM)
20 | Cc1cccc(-c2cccc(-n3ncc(C(=O)O)c3OC(C)C)n2)c1OCc1ccc2c(c1C)CCN(C(C)C)C2 [Compound 43] | 130 | 95 (≈ 171 µM) | 79 (≈ 142 µM) | 82 (≈ 148 µM)
21 | COCC(C)N1CCc2c(ccc(COc3c(C)cccc3-c3cccc(-n4ncc(C(=O)O)c4OC(C)C)n3)c2C)C1 (stereo not drawn) [Compound 44] | 44 | 100 (≈ 171 µM) | 85 (≈ 145 µM) | 88 (≈ 151 µM)
22 | Cc1cccc(-c2cccc(-n3ncc(C(=O)O)c3OC(C)C)n2)c1OCc1ccc2c(c1C)CCN(C1COC1)C2 [Compound 45] | 26 | 82 (≈ 144 µM) | 61 (≈ 107 µM) | 73 (≈ 128 µM)
23 | Cc1cccc(-c2cccc(-n3ncc(C(=O)O)c3OC(C)C)n2)c1OCc1ccc2c(c1C)CCN(CC1(C)COC1)C2 [Compound 46] | 38 | 100 (≈ 168 µM) | 82 (≈ 137 µM) | 86 (≈ 144 µM)
24 | CCOc1c(C(=O)O)cnn1-c1cccc(-c2cccc(C)c2OCc2ccc3c(c2)CCN(C(C)CF)C3)n1 (stereo not drawn) [Compound 49, 5-ethoxy-1-(6-{2-[2-(2-fluoro-1-methyl-ethyl)-1,2,3,4-tetrahydro-isoquinolin-6-ylmethoxy]-3-methyl-phenyl}-pyridin-2-yl)-1H-pyrazole-4-carboxylic acid] | 54 | 92 (≈ 169 µM) | 69 (≈ 127 µM) | 58 (≈ 106 µM)
25 | CCOc1c(C(=O)O)cnn1-c1cccc(-c2cccc(Cl)c2OCc2ccc3c(c2)CCNC3)n1 [Compound 50] | 990 | 120 (≈ 238 µM) | 79 (≈ 156 µM) | 75 (≈ 149 µM)
26 | CCOc1c(C(=O)O)cnn1-c1cccc(-c2cccc(Cl)c2OCc2ccc3c(c2)CCN(C2COC2)C3)n1 [Compound 51] | 72 | 110 (≈ 196 µM) | 83 (≈ 148 µM) | 93 (≈ 166 µM)
27 | COc1c(C(=O)O)cnn1-c1cccc(-c2cc(F)cc(F)c2OCc2ccc3c(c2)CCN(C2COC2)C3)n1 [Compound 52] | 170 | 83 (≈ 151 µM) | 58 (≈ 106 µM) | 73 (≈ 133 µM)
